Source: patent publication US20020035061A1, “COMPOSITIONS AND METHODS FOR TREATING INFECTIONS USING CATIONIC PEPTIDES ALONE OR IN COMBINATION WITH ANTIBIOTICS” (priority 1996, published 2002)
Like-named read-outs stand apart in the source and are kept apart here.

Key:
[1] = system: E. coli strain ML-35 inner membrane; assay type: cell-based; details: cells pre-incubated with valinomycin
S. epidermidis = assay type: cell-based
E. coli = assay type: cell-based; details: for Peptide MIC values: agarose dilution
E. faecium = assay type: cell-based
E. cloacae = assay type: cell-based
S. maltophilia = assay type: cell-based
[2] = system: MSSA (Smith, ATCC # 19640); experiment: In vivo efficacy, MSSA infection; set-up: species or system S. aureus; details: mice, ip, formulation D, below 14.5 mg/kg
K. pneumoniae = assay type: cell-based
S. aureus = assay type: cell-based; details: for Peptide MIC values: agarose dilution
S. marcescens = assay type: cell-based
P. aeruginosa = assay type: cell-based; details: for Peptide MIC values: agarose dilution
S. pneumoniae = experiment: Agarose dilution assay (MIC); assay type: cell-based; details: for Peptide MIC values: agarose dilution
A. calcoaceticus = assay type: cell-based
H. influenzae = experiment: Agarose dilution assay (MIC); assay type: cell-based; details: H. influenzae strain HIN002
P. mirabilis = experiment: Agarose dilution assay (MIC); assay type: cell-based; details: P. mirabilis strain PM002
bacterial isolates = experiment: microbe, parasite or virus in culture; assay type: cell-based
S. pyogenes = experiment: Agarose dilution assay (MIC); assay type: cell-based; details: S. pyogenes strain SPY005
E. faecalis = assay type: cell-based; details: E. faecalis strain EFS002
[3] = system: microorganisms with acquired resistance; experiment: microbe, parasite or virus in culture; assay type: cell-based
[4] = system: mammalian red blood cells; details: 37° C., 1 hour
Experimental: Candidate cationic peptides may be further tested for their toxicity to normal mammalian cells. An exemplary assay is a red blood cell (RBC) (erythrocyte) hemolysis assay. Briefly, in this assay, red blood cells are isolated from whole blood, typically by centrifugation, and washed free of plasma components. A 5% (v/v) suspension of erythrocytes in isotonic saline is incubated with different concentrations of peptide analogue. […] After incubation for approximately 1 hour at 37° C., the cells are centrifuged, and the absorbance of the supernatant at 540 nm is determined. A relative measure of lysis is determined by comparison to absorbance after complete lysis of erythrocytes using NH4Cl or equivalent (establishing a 100% value). A peptide with <10% lysis at 100 μg/ml is suitable. Preferably, there is <5% lysis at 100 μg/ml. Such peptides that are not lytic, or are only moderately lytic, are desirable and suitable for further screening.
Cationic peptides are tested for toxicity towards eukaryotic cells by measuring the extent of lysis of mammalian red blood cells (RBC). Briefly, in this assay, red blood cells are separated from whole blood by centrifugation and washed free of plasma components. A 5% (v/v) washed red blood cell suspension is prepared in isotonic saline. An aliquot of peptide in formulation is then added and mixed in. After incubation at 37° C. for 1 hour with constant agitation, the solution is centrifuged and the supernatant measured for absorbance at 540 nm to detect released hemoglobin.
A combination of cationic peptide and antibiotic agent is tested for toxicity towards eukaryotic cells by measuring the extent of lysis of mammalian red blood cells. Briefly, red blood cells are separated from whole blood by centrifugation, washed free of plasma components, and resuspended to a 5% (v/v) suspension in isotonic saline. […] Following incubation with constant agitation at 37° C. for 1 hour, the solution is centrifuged, and the absorbance of the supernatant is measured at 540 nm, which detects released hemoglobin. […]

[5] = A. baumannii ABI001, Tobramycin section
[6] = A. calcoaceticus 3, Piperacillin section
[7] = P. aeruginosa 15, Piperacillin section
[8] = P. aeruginosa PA008, Tobramycin section
[9] = P. aeruginosa PA025, Tobramycin section
[10] = S. marcescens SB1, Piperacillin section
[11] = peptide + Piperacillin, A. calcoaceticus 3
[12] = peptide + Piperacillin, P. aeruginosa 15
[13] = peptide + Piperacillin, S. marcescens SB1
[14] = peptide + Tobramycin, A. baumannii ABI001
[15] = peptide + Tobramycin, P. aeruginosa PA008
[16] = peptide + Tobramycin, P. aeruginosa PA025

ILPWKWPWWPWRR [MBI 10CN]
ONPG hydrolysis diminished compared to no pre-incubation [1]: approximately 50% | MIC (S. epidermidis; S. epidermidis SE010): 4 µg/mL | MIC (E. coli; E. coli ECO001): 32 µg/mL | MIC (E. coli; E. coli SBECO2): 16 µg/mL | Peptide MIC values (E. coli; E. coli ATCC 25922): 16 µg/mL | Peptide MIC values (E. coli; E. coli NCTC 10418): 8 µg/mL | MIC (E. faecium; E. faecium EFM003): 2 µg/mL | Peptide MIC values (E. faecium; agarose dilution): 4 µg/mL | MIC (E. cloacae; E. cloacae ECL007): >128 µg/mL | MIC (S. maltophilia; S. maltophilia SMA002): 64 µg/mL | survival [2]: clear dose-dependent survival | MIC (K. pneumoniae; K. pneumoniae KP002): 64 µg/mL | MIC (S. aureus; S. aureus SA003): 2 µg/mL | Peptide MIC values (S. aureus; S. aureus MRSA9): 1 µg/mL | Peptide MIC values (S. aureus; S. aureus MRSA13): 4 µg/mL | Peptide MIC values (S. aureus; S. aureus MRSA17): 2 µg/mL | MIC (S. marcescens; S. marcescens SMS004): >128 µg/mL | Peptide MIC values (S. marcescens; agarose dilution, S. marcescens SM82): >128 µg/mL | MIC (P. aeruginosa; P. aeruginosa PA002): >128 µg/mL | Peptide MIC values (P. aeruginosa; P. aeruginosa ATCC 27853): >128 µg/mL | Peptide MIC values (P. aeruginosa; P. aeruginosa NCTC 10662): >128 µg/mL | Peptide MIC values (S. pneumoniae; S. pneumoniae 406LE8): >128 µg/mL | Peptide MIC values (S. pneumoniae; S. pneumoniae 60120): 64 µg/mL | Peptide MIC values (S. pneumoniae; S. pneumoniae ATCC 49619): 32 µg/mL | MIC (A. calcoaceticus; A. calcoaceticus AC001): 64 µg/mL

ILRRVJPWWPWRRR [MBI 11B9CN]
MIC (H. influenzae): >128 µg/mL | MIC (S. epidermidis; S. epidermidis strain SE010): 2 µg/mL | MIC (E. coli; E. coli strain ECO005): 8 µg/mL | MIC (P. mirabilis): >128 µg/mL | MIC (E. faecium; E. faecium strain EFM002): 4 µg/mL | MIC (E. cloacae; E. cloacae strain ECL007): >128 µg/mL | MIC (S. maltophilia; S. maltophilia strain SMA002): 32 µg/mL | Peptide MIC + Tobramycin (bacterial isolates; A. baumannii ABI001): 8 µg/mL | Tobramycin MIC + Peptide (bacterial isolates; A. baumannii ABI001): 4 µg/mL | Peptide MIC Alone (bacterial isolates; [5]): 32 µg/mL | Peptide MIC + Piperacillin (bacterial isolates; A. calcoaceticus 3): 2 µg/mL | Piperacillin MIC + Peptide (bacterial isolates; A. calcoaceticus 3): 32 µg/mL | Peptide MIC Alone (bacterial isolates; [6]): 32 µg/mL | Peptide MIC + Tobramycin (bacterial isolates; B. cepacia BC002): 32 µg/mL | Tobramycin MIC + Peptide (bacterial isolates; B. cepacia BC002): 64 µg/mL | Peptide MIC Alone (bacterial isolates; B. cepacia BC002, Tobramycin section): >128 µg/mL | Peptide MIC + Piperacillin (bacterial isolates; H. influenzae 3): 0.125 µg/mL | Piperacillin MIC + Peptide (bacterial isolates; H. influenzae 3): 0.25 µg/mL | Peptide MIC Alone (bacterial isolates; H. influenzae 3, Piperacillin section): >128 µg/mL | Peptide MIC + Piperacillin (bacterial isolates; H. influenzae SB1): 0.125 µg/mL | Piperacillin MIC + Peptide (bacterial isolates; H. influenzae SB1): 0.25 µg/mL | Peptide MIC Alone (bacterial isolates; H. influenzae SB1, Piperacillin section): >128 µg/mL | Peptide MIC + Piperacillin (bacterial isolates; P. aeruginosa 15): 64 µg/mL | Piperacillin MIC + Peptide (bacterial isolates; P. aeruginosa 15): 64 µg/mL | Peptide MIC Alone (bacterial isolates; [7]): >128 µg/mL | Peptide MIC + Piperacillin (bacterial isolates; P. aeruginosa 23): 0.5 µg/mL | Piperacillin MIC + Peptide (bacterial isolates; P. aeruginosa 23): 16 µg/mL | Peptide MIC Alone (bacterial isolates; P. aeruginosa 23, Piperacillin section): 64 µg/mL | Peptide MIC + Tobramycin (bacterial isolates; P. aeruginosa PA008): 64 µg/mL | Tobramycin MIC + Peptide (bacterial isolates; P. aeruginosa PA008): 0.125 µg/mL | Peptide MIC Alone (bacterial isolates; [8]): 128 µg/mL | Peptide MIC + Tobramycin (bacterial isolates; P. aeruginosa PA025): 64 µg/mL | Tobramycin MIC + Peptide (bacterial isolates; P. aeruginosa PA025): 2 µg/mL | Peptide MIC Alone (bacterial isolates; [9]): 128 µg/mL | Peptide MIC + Piperacillin (bacterial isolates; S. aureus 19 MRSA): 1 µg/mL | Piperacillin MIC + Peptide (bacterial isolates; S. aureus 19 MRSA): 16 µg/mL | Peptide MIC Alone (bacterial isolates; S. aureus 19 MRSA, Piperacillin section): 4 µg/mL | Peptide MIC + Piperacillin (bacterial isolates; S. aureus SB2MRSA): 1 µg/mL | Piperacillin MIC + Peptide (bacterial isolates; S. aureus SB2MRSA): 8 µg/mL | Peptide MIC Alone (bacterial isolates; S. aureus SB2MRSA, Piperacillin section): 2 µg/mL | Peptide MIC + Piperacillin (bacterial isolates; S. maltophilia 5): 64 µg/mL | Piperacillin MIC + Peptide (bacterial isolates; S. maltophilia 5): 64 µg/mL | Peptide MIC Alone (bacterial isolates; S. maltophilia 5, Piperacillin section): >128 µg/mL | Peptide MIC + Piperacillin (bacterial isolates; S. maltophilia 13): 32 µg/mL | Piperacillin MIC + Peptide (bacterial isolates; S. maltophilia 13): 64 µg/mL | Peptide MIC Alone (bacterial isolates; S. maltophilia 13, Piperacillin section): >128 µg/mL | Peptide MIC + Tobramycin (bacterial isolates; S. maltophilia SMA029): 16 µg/mL | Tobramycin MIC + Peptide (bacterial isolates; S. maltophilia SMA029): 4 µg/mL | Peptide MIC Alone (bacterial isolates; S. maltophilia SMA029, Tobramycin section): >128 µg/mL | Peptide MIC + Piperacillin (bacterial isolates; S. marcescens SB1): 2 µg/mL | Piperacillin MIC + Peptide (bacterial isolates; S. marcescens SB1): 16 µg/mL | Peptide MIC Alone (bacterial isolates; [10]): >128 µg/mL | FIC (bacterial isolates; [11]): 0.56 | FIC (bacterial isolates; peptide + Piperacillin, H. influenzae 3): 0.50 | FIC (bacterial isolates; peptide + Piperacillin, H. influenzae SB1): 0.50 | FIC (bacterial isolates; [12]): 0.50 | FIC (bacterial isolates; peptide + Piperacillin, P. aeruginosa 23): 0.13 | FIC (bacterial isolates; peptide + Piperacillin, S. aureus 19 MRSA): 0.38 | FIC (bacterial isolates; peptide + Piperacillin, S. aureus SB2MRSA): 0.56 | FIC (bacterial isolates; peptide + Piperacillin, S. maltophilia 5): 0.50 | FIC (bacterial isolates; peptide + Piperacillin, S. maltophilia 13): 0.38 | FIC (bacterial isolates; [13]): 0.26 | FIC (bacterial isolates; [14]): 0.50 | FIC (bacterial isolates; peptide + Tobramycin, B. cepacia BC002): 0.38 | FIC (bacterial isolates; [15]): 0.50 | FIC (bacterial isolates; [16]): 0.56 | FIC (bacterial isolates; peptide + Tobramycin, S. maltophilia SMA029): 0.13 | MIC (K. pneumoniae; K. pneumoniae strain KP001): 32 µg/mL | MIC (S. pyogenes): 16 µg/mL | MIC (E. faecalis): 8 µg/mL | MIC (S. aureus; S. aureus strain SA010): 4 µg/mL | MIC (S. marcescens; S. marcescens strain SMS003): >128 µg/mL | MIC (P. aeruginosa; P. aeruginosa strain PA004): 128 µg/mL | MIC (S. pneumoniae; S. pneumoniae strain SBSPN2): >128 µg/mL | MIC (S. pneumoniae; S. pneumoniae strain SPN044): >128 µg/mL | Peptide MIC + Tobramycin ([3]; A. baumannii ABI001): 8 µg/mL | Tobramycin MIC + Peptide ([3]; A. baumannii ABI001): 4 µg/mL | Peptide MIC Alone [3, 5]: 32 µg/mL | Peptide MIC + Piperacillin ([3]; A. calcoaceticus 3): 16 µg/mL | Piperacillin MIC + Peptide ([3]; A. calcoaceticus 3): 16 µg/mL | Peptide MIC Alone [3, 6]: 32 µg/mL | Peptide MIC + Tobramycin ([3]; E. coli EC0006): 8 µg/mL | Tobramycin MIC + Peptide ([3]; E. coli EC0006): 4 µg/mL | Peptide MIC Alone ([3]; E. coli EC0006, Tobramycin section): 32 µg/mL | Peptide MIC + Piperacillin ([3]; P. aeruginosa 12): 64 µg/mL | Piperacillin MIC + Peptide ([3]; P. aeruginosa 12): 64 µg/mL | Peptide MIC Alone ([3]; P. aeruginosa 12, Piperacillin section): 128 µg/mL | Peptide MIC + Piperacillin ([3]; P. aeruginosa 15): 64 µg/mL | Piperacillin MIC + Peptide ([3]; P. aeruginosa 15): 64 µg/mL | Peptide MIC Alone [3, 7]: >128 µg/mL | Peptide MIC + Tobramycin ([3]; P. aeruginosa PA008): 64 µg/mL | Tobramycin MIC + Peptide ([3]; P. aeruginosa PA008): 0.125 µg/mL | Peptide MIC Alone [3, 8]: 128 µg/mL | Peptide MIC + Tobramycin ([3]; P. aeruginosa PA025): 64 µg/mL | Tobramycin MIC + Peptide ([3]; P. aeruginosa PA025): 2 µg/mL | Peptide MIC Alone [3, 9]: 128 µg/mL | Peptide MIC + Piperacillin ([3]; S. maltophilia 2): 16 µg/mL | Piperacillin MIC + Peptide ([3]; S. maltophilia 2): 16 µg/mL | Peptide MIC Alone ([3]; S. maltophilia 2, Piperacillin section): 32 µg/mL | Peptide MIC + Tobramycin ([3]; S. maltophilia SMA027): 32 µg/mL | Tobramycin MIC + Peptide ([3]; S. maltophilia SMA027): 4 µg/mL | Peptide MIC Alone ([3]; S. maltophilia SMA027, Tobramycin section): >128 µg/mL | Peptide MIC + Tobramycin ([3]; S. maltophilia SMA031): 32 µg/mL | Tobramycin MIC + Peptide ([3]; S. maltophilia SMA031): 4 µg/mL | Peptide MIC Alone ([3]; S. maltophilia SMA031, Tobramycin section): >128 µg/mL | Peptide MIC + Piperacillin ([3]; S. marcescens SB1): 2 µg/mL | Piperacillin MIC + Peptide ([3]; S. marcescens SB1): 16 µg/mL | Peptide MIC Alone [3, 10]: >128 µg/mL | FIC [3, 11]: 0.75 | FIC ([3]; peptide + Piperacillin, P. aeruginosa 12): 0.75 | FIC [3, 12]: 0.50 | FIC ([3]; peptide + Piperacillin, S. maltophilia 2): 0.75 | FIC [3, 13]: 0.26 | FIC [3, 14]: 0.50 | FIC ([3]; peptide + Tobramycin, E. coli EC0006): 0.75 | FIC [3, 15]: 0.50 | FIC [3, 16]: 0.56 | FIC ([3]; peptide + Tobramycin, S. maltophilia SMA027): 0.63 | FIC ([3]; peptide + Tobramycin, S. maltophilia SMA031): 0.19 | MIC (A. calcoaceticus; A. calcoaceticus strain AC002): 4 µg/mL

CC[C@H](C)[C@H](NC(=O)CNC(=O)[C@@H](NC(=O)[C@H](CCCCN)NC(=O)[C@H](CCCCN)NC(=O)[C@H](Cc1ccccc1)NC(=O)[C@H](CC(C)C)NC(=O)[C@H](CCCCN)NC(=O)[C@H](Cc1c[nH]c2ccccc12)NC(=O)[C@@H](N)CCCCN)[C@@H](C)CC)C(=O)NCC(=O)N[C@@H](C)C(=O)N[C@H](C(=O)N[C@@H](CC(C)C)C(=O)N[C@@H](CCCCN)C(=O)N[C@H](C(=O)N[C@@H](CC(C)C)C(=O)N[C@H](C(=O)N[C@H](C(=O)NCC(=O)N[C@@H](CC(C)C)C(=O)N1CCC[C@H]1C(=O)N[C@@H](C)C(=O)N[C@@H](CC(C)C)C(=O)N[C@H](C(=O)N[C@@H](CO)C(=O)O)[C@@H](C)CC)[C@@H](C)O)[C@@H](C)O)C(C)C)C(C)C [MBI 27]
% Lysis [4]: 2.7%
